Measured values published in BigSolDB 2.1.

S=c1[nH]c2ccccc2s1
solubility (mole fraction)
Conditions	in 1,4-dioxane	in 2-butanone	in acetonitrile	in chloroform	in ethyl acetate	in isobutanol
273.15 K	–	0.0695	0.00426	0.00683	0.0274	0.0101
275.65 K	–	0.0722	0.00467	0.0072	0.0286	0.011
278.15 K	–	0.0752	0.00507	0.00766	0.0297	0.012
280.65 K	–	0.0778	0.00553	0.00816	0.0309	0.0132
283.15 K	–	0.0807	0.00597	0.00865	0.0323	0.0143
285.65 K	0.0438	0.0837	0.00647	0.00922	0.0336	0.0155
288.15 K	0.0466	0.0867	0.00705	0.00972	0.0348	0.0169
290.65 K	0.0502	0.0902	0.00762	0.0104	0.0361	0.0184
293.15 K	0.0536	0.093	0.00819	0.0109	0.0374	0.0199
295.65 K	0.0574	0.0967	0.00885	0.0115	0.0389	0.0215
298.15 K	0.0613	0.0995	0.00956	0.0121	0.0403	0.0231
300.65 K	0.0652	0.103	0.0102	0.0128	0.0419	0.0252
303.15 K	0.0698	0.106	0.011	0.0135	0.0434	–
305.65 K	0.0742	0.11	0.0118	0.0142	0.0448	–
308.15 K	0.079	0.113	0.0127	0.0149	0.0465	–
310.65 K	0.0835	0.116	0.0137	0.0156	0.0482	–
313.15 K	0.0893	0.12	0.0146	0.0165	0.0499	–
315.65 K	0.0943	0.124	0.0155	0.0172	0.0513	–
318.15 K	0.101	0.128	0.0167	0.0182	0.0532	–
